Experimental data: patent US20190374478A1, “Ultrastable Gold Nanoparticles For Drug Delivery Applications And Synthesis Thereof” (Université Laval, priority 2016, published 2019)

What was measured:
[1] = Encapsulation efficiency (indirect assay, magnetic bead removal, UV-visible/HPLC of supernatant); type: physicochemical; details: 69 nM AuNPs
Procedure: The AuNPs and the drug are brought into contact in a screw-cap 2 mL microtube, with magnetic bar stirring, at 37° C. for a time determined according to the kinetics of encapsulation obtained by UV-visible spectroscopy.
In the case of travoprost, an encapsulation time of five days was chosen according to the encapsulation kinetics determined by UV spectroscopy at 278 nm (FIG. 9).
The method used to determine the encapsulation efficiency rely on an indirect assay by evaluating what has not been encapsulated. Once the encapsulation is complete, the entire mixture is brought into contact with magnetic beads to allow the nanoparticles that contain the encapsulated drug to be removed from the medium. The residual supernatant is then analyzed by UV-visible spectroscopy and high-performance liquid chromatography (HPLC).
To do so, a solution of 0.0005% phosphate buffered saline Tween™ (PBS-T) was prepared. The magnetic beads were then cleaned and 100 μL of magnetic beads were placed in a 1.5 mL microtube. The beads were then magnetized, and the supernatant was removed.
1 mL of the prepared PBS-T was added to the beads, the beads were then suspended with a vigorous vortex for 30 seconds. The beads were then magnetized, and the supernatant was removed. […]
The final supernatant was analyzed by UV-Visible spectroscopy (λ=200-700 nm) and by high-performance liquid chromatography (HPLC).

[2] = test system: intraocular pressure in glaucomatous mice; assay: Intraocular pressure in microbead-induced hypertensive glaucoma model; type: in vivo, C57BL/6J mice
Procedure: An in vivo glaucoma model involving the injection of exogenous microbeads into the anterior chamber was used (FIG. 17A). The injected beads partially block the trabecular meshwork resulting in intraocular pressure (IOP) elevation while causing no damage to the site of drug action. Two-month-old C57BL/6J mice were used. The IOP was followed with a tonometer (Tonolab®) specially designed for rodents. Animals were injected with 5 μL of microbeads with a dimeter of about 10 μm (7.2×10^6 microbeads/mL) in the anterior chamber of the left eye. For the encapsulation experiments, travoprost was solubilized in water/ethanol (50/50) in the presence of AuNPs. The solution was heated (65° C.) in order to evaporate the ethanol and to induce conformational changes of PEG molecules leading to a better encapsulation. The solution was thus completed with water until the initial volume. Hypertensive glaucoma was induced in adult C57BL/6 mice by injecting 5 μL of polystyrene microbeads (35,000 microbeads) with an average diameter of 10 μm in the anterior chamber of the eye. The dispersion of the microbeads at the level of the iridocorneal angle blocks the passage of the aqueous humor towards the trabecular meshwork (FIG. 17A). Mechanically, the decrease in drainage of the aqueous humor produces an increase in intraocular pressure which is measured with a tonometer of the Tonolab brand. […]

- Percentage of encapsulated travoprost ([1]; initial 80 μM travoprost): about 68.52%±4.032
- Percentage of encapsulated travoprost ([1]; initial 120 μM travoprost): about 67.98%±3.877
SMILES: CC(C)OC(=O)CCC/C=C\C[C@@H]1[C@@H](/C=C/[C@@H](O)COc2cccc(C(F)(F)F)c2)[C@H](O)C[C@@H]1O [travoprost]
- Level of intraocular pressure after 24 hours ([2]; 24 hours after single topical application): returned to a high level, similar to that before treatment
- Effect on intraocular pressure ([2]; single topical application, glaucomatous mice): significantly but transiently decreased
